Experimental data: ChEMBL document CHEMBL4334438, “Discovery of novel glycogen synthase kinase-3α inhibitors: Structure-based virtual screening, preliminary SAR and biological evaluation for treatment of acute myeloid leukemia” (Eur J Med Chem, 2019)

Key:
[1] = system: Glycogen synthase kinase-3 alpha (Homo sapiens), P49840 [UNDEFINED MUTATION]; experiment: Inhibition of human GSK-3alpha S449A mutant (2 to end residues) at 10 uM using phospho GS2 peptide as substrate after 40 mins in presence of [gamma-33ATP] by scintillation counting method relative to control
[2] = molecular target: Glycogen synthase kinase-3 beta (Homo sapiens, UniProt P49841, H350L); experiment: Inhibition of human GSK-3beta H350L mutant (2 to end residues) at 10 uM using phospho GS2 peptide as substrate after 40 mins by [gamma-33ATP] radiometric assay
[3] = molecular target: Glycogen synthase kinase-3 alpha (Homo sapiens, UniProt P49840); experiment: Inhibition of human GSK-3alpha S449A mutant (2 to end residues) using phospho GS2 peptide as substrate after 40 mins in presence of [gamma-33ATP] by scintillation counting method
GSK-3beta (H350L mutant) = GSK-3beta (H350L mutant) (Homo sapiens, UniProt P49841, H350L); experiment: Inhibition of human GSK-3beta H350L mutant (2 to end residues) at 10 uM using phospho GS2 peptide as substrate after 40 mins by [gamma-33ATP] radiometric assay relative to control; settings: human GSK-3beta H350L mutant enzyme (residues 2 to end), probe phospho GS2 peptide
GSK-3beta (H350L mutant), sequence (P49841 whole entry, looked up, stated change not applied, the tested form may be a part): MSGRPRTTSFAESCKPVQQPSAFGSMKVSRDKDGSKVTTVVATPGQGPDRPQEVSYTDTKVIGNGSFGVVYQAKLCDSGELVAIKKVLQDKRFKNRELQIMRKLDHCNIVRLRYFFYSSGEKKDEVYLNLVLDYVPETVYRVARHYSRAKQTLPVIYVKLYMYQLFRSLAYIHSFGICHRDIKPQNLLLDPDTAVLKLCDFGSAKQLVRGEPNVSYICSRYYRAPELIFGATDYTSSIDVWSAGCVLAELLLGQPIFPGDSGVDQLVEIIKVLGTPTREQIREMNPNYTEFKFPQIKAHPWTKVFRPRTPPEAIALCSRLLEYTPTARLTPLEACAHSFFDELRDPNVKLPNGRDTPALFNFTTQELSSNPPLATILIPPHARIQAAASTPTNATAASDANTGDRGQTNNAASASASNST

Glycogen synthase kinase-3 alpha, sequence (P49840 whole entry, the tested form may be a part): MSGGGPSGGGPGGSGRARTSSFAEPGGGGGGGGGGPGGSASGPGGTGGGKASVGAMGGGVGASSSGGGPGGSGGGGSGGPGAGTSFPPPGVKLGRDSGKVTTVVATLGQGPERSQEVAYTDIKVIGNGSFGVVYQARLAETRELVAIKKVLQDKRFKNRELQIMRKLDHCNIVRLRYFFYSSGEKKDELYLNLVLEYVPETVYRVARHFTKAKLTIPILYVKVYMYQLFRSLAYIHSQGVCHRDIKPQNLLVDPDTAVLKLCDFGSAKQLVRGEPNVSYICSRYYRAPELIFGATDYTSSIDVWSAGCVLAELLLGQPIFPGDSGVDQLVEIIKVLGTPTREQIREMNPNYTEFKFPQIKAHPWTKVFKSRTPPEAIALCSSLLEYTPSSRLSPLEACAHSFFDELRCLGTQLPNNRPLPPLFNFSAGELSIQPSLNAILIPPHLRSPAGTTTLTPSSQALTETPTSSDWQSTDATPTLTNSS
Glycogen synthase kinase-3 alpha (Homo sapiens), P49840 [UNDEFINED MUTATION], sequence (P49840 whole entry, looked up, stated change not applied): as the sequence (P49840 whole entry, the tested form may be a part) above
Glycogen synthase kinase-3 beta, sequence (P49841 whole entry, looked up, stated change not applied): as the sequence (P49841 whole entry, looked up, stated change not applied, the tested form may be a part) above

Structure (SMILES)	inhibition [1] [%]	IC50 [2] [nM]	IC50 [3] [nM]	inhibition at 40 min, 10 µM (GSK-3beta (H350L mutant)) [%]
CC(=O)c1cn(CCCCCCCCCCn2cc(C(C)=O)c(=O)[nH]c2=O)c(=O)[nH]c1=O	13	–	–	–
N=C1NC(=O)/C(=C\c2ccc(-c3cc([N+](=O)[O-])ccc3Cl)o2)S1	71	1760	2680	65
NC(=O)CSc1nc2c(N)ncnc2n1Cc1ccccc1	-10	–	–	–
O=C1NC(=O)C(c2cnc3ccccn23)=C1c1cn2c3c(cc(F)cc13)CN(C(=O)N1CCCCC1)CC2 [LY-2090314]	99	1.29	1.02	97
Cc1ccc(-c2ccc(/C=C3/SC(=N)NC3=O)o2)cc1Cl	81	1430	301	77
CCCN1C(=O)/C(=C\c2ccc(-c3ccc(Cl)cc3)o2)NC1=S	17	–	–	–
CCCCOC(=O)c1cc(-c2ccc(/C=C3/NC(=S)NC3=O)o2)ccc1Cl	65	1190	710	55
O=C1NC(=S)N/C1=C/c1ccc(-c2c(Br)cc([N+](=O)[O-])cc2Br)o1	42	–	–	–
COc1ccc(-c2ccc(CNc3n[nH]c(C)n3)o2)cc1Cl	8	–	–	–
O=C1NC(=S)N/C1=C/c1ccc(-c2cccc(C(=O)O)c2)o1	97	338	145	96
Cc1cc(C)cc(/N=C2/NC(=O)/C(=C\c3ccc(-c4cccc(Cl)c4)o3)S2)c1	10	–	–	–
N=C1NC(=O)/C(=C\c2ccc(-c3cccc(Cl)c3)o2)S1	94	767	282	88
O=C1NC(=O)N(c2ccc(Br)cc2)C(=O)/C1=C\NCCc1c[nH]c2ccccc12	66	–	4600	–
N=C1NC(=O)/C(=C\c2ccc(-c3ccc([N+](=O)[O-])cc3Cl)o2)S1	20	–	–	–
COc1cc(CNc2nn[nH]n2)ccc1OCC(N)=O	1	–	–	–
N=C1NC(=O)/C(=C\c2ccc(-c3ccc(Cl)c([N+](=O)[O-])c3)o2)S1	49	–	–	–
N#Cc1cn(CCCN2CCN(CCCn3cc(C#N)c(=O)[nH]c3=O)CC2)c(=O)[nH]c1=O	2	–	–	–
Cc1ccc(OCc2n[nH]c(Nc3ccccc3)n2)cc1	5	–	–	–
CCOc1c(/C=C2/SC(=O)NC2=O)cccc1OC	54	–	16800	–
CC(=O)/N=C1/NC(=O)/C(=C\c2ccc(-c3ccc(C(=O)O)cc3)o2)S1	86	3720	557	72
N#CC1=C(N)Oc2[nH]nc(-c3cccnc3)c2/C1=C1\C(=O)Nc2ccc(Br)cc21	2	–	–	–
O=C1N/C(=N/Cc2ccccc2)S/C1=C/c1ccc(-c2ccccc2)o1	30	–	–	–

Structure (SMILES)	inhibition [1] [%]	IC50 [2] [nM]	IC50 [3] [nM]	inhibition at 40 min, 10 µM (GSK-3beta (H350L mutant)) [%]
O=C(O)CCC(=O)N1N=C(c2c(-c3ccccc3)c3cc(Cl)ccc3[nH]c2=O)CC1c1ccco1 (configuration not stated)	–	–	13000	–
O=C1NC(=S)N/C1=C/c1ccc(Sc2ccc(Cl)cc2)o1	23	–	–	–
CN1C(=O)/C(=C\c2ccc(-c3cccc(Cl)c3)o2)N(C)C1=S	13	–	–	–
O=C1NC(=S)N/C1=C/c1ccc(-c2ccccc2Cl)o1	84	917	609	86
COc1ccc([N+](=O)[O-])cc1-c1ccc(/C=C2/S/C(=N\C(C)=O)NC2=O)o1	9	–	–	–
N#Cc1ccccc1-c1ccc(C=C2C(=O)NC(=S)NC2=O)o1	14	–	–	–
O=C(COC(=O)c1cc(O)nc2ccccc12)c1cccc2ccccc12	2	–	–	–
CC(=O)/N=C1/NC(=O)/C(=C\c2ccc(-c3ccc(C)c(Cl)c3)o2)S1	21	–	–	–
Cc1[nH]nc2c1C(c1ccnc3ccccc13)C(C#N)=C(N)O2 (configuration not stated)	6	–	–	–
NS(=O)(=O)c1ccc(N/C=C2/C(=O)NC(=O)N(c3ccccc3)C2=O)cc1	17	–	–	–
CCCCCSc1nc2c(c(=O)[nH]c(=O)n2C)n1CC(O)COc1ccccc1 (configuration not stated)	25	–	–	–
Cc1c(-c2ccc(/C=C3/SC(=N)NC3=O)o2)ccc([N+](=O)[O-])c1C	64	571	227	66
COc1cc(CNc2ccc(CNc3nc[nH]n3)cc2)ccc1OCC(=O)NC(C)(C)C	1	–	–	–
COc1cc(/C=C2/C(=O)NC(=O)N(c3ccccc3)C2=O)ccc1O	14	–	–	–
O=C(N/N=C/c1cccnc1)c1cc(-c2cccc3ccccc23)n[nH]1	12	–	–	–
O=C1N/C(=N/c2ccccc2)S/C1=C/c1ccc(Sc2ccc(Cl)cc2)o1	47	–	–	–
Cc1cc([N+](=O)[O-])ccc1-c1ccc(/C=C2/SC(=N)NC2=O)o1	44	–	–	–
COc1ccc(-c2n[nH]cc2/C=N\NC(=O)c2ccccc2I)cc1OC	44	–	–	–
COC(=O)c1ccc(-c2ccc(/C=C3\C(=O)NC(=N)N3C)o2)cc1	32	–	–	–
CCN1C(=O)/C(=C\c2ccc(-c3ccc(C(=O)O)cc3)o2)N(CC)C1=S	38	–	–	–
Nc1nc(CCCc2n[nH]c(N)n2)n[nH]1	16	–	–	–
O=C(O)CCC(=O)N1N=C(c2c(O)nc3ccc(Cl)cc3c2-c2ccccc2)CC1c1ccco1 (configuration not stated)	67	–	–	–

Structure (SMILES)	inhibition [1] [%]	IC50 [2] [nM]	IC50 [3] [nM]	inhibition at 40 min, 10 µM (GSK-3beta (H350L mutant)) [%]
COc1cc([N+](=O)[O-])ccc1-c1ccc(/C=C2/SC(=N)NC2=O)o1	29	–	–	–
CC(=O)/N=C1/NC(=O)/C(=C\c2ccc(-c3ccc(F)cc3F)o2)S1	15	–	–	–
CCN1C(=O)/C(=C\c2ccc(-c3ccc(Cl)cc3Cl)o2)NC1=S	26	–	–	–
COc1ccc(CNc2cc(-c3ccco3)n[nH]2)cc1	1	–	–	–
O=C1NC(=S)NC(=O)C1=Cc1ccc(-c2cc(Cl)ccc2Cl)o1	26	–	–	–
O=C1N/C(=N/c2ccccc2)S/C1=C/c1ccc(-c2ccccc2)o1	23	–	–	–
O=C(N/N=C/c1cccc(Cl)c1)c1cc(-c2ccc3c4c(cccc24)CC3)[nH]n1	52	–	11200	–
Cc1ccc(SCc2[nH]nc3c2C(c2ccnc4ccccc24)C(C#N)=C(N)O3)cc1 (configuration not stated)	2	–	–	–
O=C(O)c1cc(NS(=O)(=O)c2ccc3c4c(cccc24)C(=O)N3)ccc1O	15	–	–	–
O=C(CSc1nnc(CCc2nnc(SCC(=O)c3ccccc3)[nH]2)[nH]1)c1ccccc1	25	–	–	–
O=C1N/C(=N/c2ccccc2)S/C1=C/c1ccc(-c2cccc(C(=O)O)c2)o1	15	–	–	–
COc1ccc([N+](=O)[O-])cc1-c1ccc(/C=C2/SC(=N)NC2=O)o1	15	–	–	–
O=C1N/C(=N/c2ccccc2)S/C1=C/c1ccco1	21	–	–	–
O=C(CSc1nc2ccccc2[nH]c1=O)Nc1ccc2c(c1)OCO2	2	–	–	–
CC(=O)/N=C1/NC(=O)/C(=C\c2ccc(-c3ccccc3C(=O)O)o2)S1	11	–	–	–
Cc1ccc(Cl)cc1-c1ccc(/C=C2/S/C(=N\c3ccccc3)NC2=O)o1	0	–	–	–
CC1=NN(c2cccc(C(=O)O)c2)C(=O)/C1=C\c1ccc(-c2ccc3c(c2)C(=O)NC3=O)o1	58	–	6150	–
NC(=O)Cc1nc2sc3c(c2c(=O)[nH]1)CCN(Cc1ccccc1)C3	-1	–	–	–
Cc1c(Cl)cccc1-c1ccc(CNc2nc[nH]n2)o1	8	–	–	–
O=C1NC(=S)N/C1=C/c1ccc(-c2cc([N+](=O)[O-])ccc2Cl)o1	22	–	–	–
Cc1ccccc1OCC(=O)Nc1ccc(Oc2ccc3c(c2)C(=O)NC3=O)cc1	54	–	10200	–
